Test results as given in US20250388858A1, “COMPOSITION FOR EMBRYONIC DEVELOPMENT, COMPRISING RAD51 ACTIVATOR, AND METHOD FOR IMPROVING EMBRYONIC DEVELOPMENT RATE USING SAME” (CHA UNIVERSITY INDUSTRY-ACADEMIC COOPERATION FOUNDATION, priority 2018, published 2025).

Legend:
SCNT eggs (F/T SCNT) [1] = assay: Immunostaining of DNA damage biomarker rH2AX and Rad51; assay type: cell-based, mice
Experimental: In detail, IVF group, SCNT group, and SCNT+RS-1 group fixed in 4% paraformaldehyde were arrested at the 1-cell stage, 2-cell stage, and 4-cell stage, and then incubated with rH2AX (Abcam, ab22551) Rad51 (Abcam, ab63801) for 2 hr, followed by incubation in the presence of goat anti-mouse antibody diluted with PBS/0.1% BSA at 1:200, and goat anti-rabbit antibody at the same concentration for 1 hr. Thereafter, nuclei were stained with DAPI.

blastocysts of SCNT eggs = assay: Embryonic stem cell establishment from SCNT blastocysts; assay type: cell-based, mouse; conditions: SCNT+RS-1 blastocysts on MEF feeder cells; non-RS-1 treated group 17%; FIG. 9B
Experimental: In detail, blastocysts of each group was cultured on mouse embryonic fibroblast (MEF cells) feeder cells in a mouse embryonic stem cell culture medium. 20% KSR, 0.1 mM β-mercaptoethanol, 1% non-essential amino acids, 100 units/ml penicillin, 100 μg/ml streptomycin (all products available from GIBCO), 1.5×10^3 units/ml of recombination mLif (Chemicon) were used in the culture medium. Subculture was performed using Trypsin-EDTA, and the established embryonic stem cells of somatic cell cloned mice were treated with alkaline phosphatase. The established stem cells were evaluated by histochemical staining.

SCNT eggs (F/T SCNT) [2] = assay: CellROX reactive oxygen species staining of eggs at the 2-cell stage; assay type: cell-based, mice; conditions: SCNT+RS-1 group, FIG. 5A
Experimental: In detail, IVF group, SCNT+RS-1 group, and SCNT group at the 2-cell stage were incubated at 37° C. for 30 min in the dark in a culture medium supplemented with 5 μM of CellROX oxidative stress reagent for 30 min. Thereafter, each group was washed with 0.1% PVA-added D-PBS, and nuclei were stained with Hoechst (Sigma).

SCNT eggs = assay: RNA sequencing of cloned eggs at the 2-cell stage; assay type: cell-based, mouse; conditions: SCNT+RS-1 group
Experimental: To examine the effect of RS-1 treatment on SCNT eggs, RS-1 was treated to cloned eggs at the 2-cell stage during the somatic cell cloning procedure of Example 1, followed by RNA sequencing. At this time, IVF eggs were used as a negative control group. In detail, complementary DNA (cDNA) was amplified using a SMARTer ultra-low input RNA Kit for cDNA preparation (Takara, 634890) according to the manufacturer's instructions. cDNA was fragmented into about 200 bp fragments using a M220 sonicator (Covaris). The fragmented cDNAs were subjected to end-repair, and an adapter was ligated thereto. Sequencing libraries were prepared using a ScriptSeq v2 kit (Illumina) according to the manufacturer's instructions. Single-end sequencing was performed in HiSeq2500 (Illumina), and mapped to the mm9 mouse genome using STAR (v2.5.2b, https://github.com/alexdobin/STAR). Subsequently, […] (FPKM) was calculated by cuff link (v2.2.1) with default options.
To examine cloning mechanisms in the RS-1-treated SCNT egg (SCNT+RS-1) of Example 3 and the cloned egg (SCNT+Kdm4a) injected with Kdm4a mRNA during SCNT of Example 2, genes expressed in each egg were examined in the same manner as in Example 8.

[3] = test system: surrogate female ICR mice
Text: It is reported that a success rate of cloned mouse production is generally about 1% after normal somatic cell cloning. Therefore, implantation and cloned pups formation rates of mice were examined according to treatment of SCNT eggs with RS-1. In detail, SCNT and SCNT+RS-1 oocytes at the 2-cell stage were implanted into the uterus of surrogate female ICR mice at 0.5 days after pseudopregnancy. At 19.5 days after implantation, the somatic cell cloned mice were separated from the uterus of the surrogate mother, and then the cloned mice were nurtured together with normal ICR mice born on the same day by ICR mice smeared with the smell of the surrogate mother.

SCNT eggs (F/T SCNT) [4] = assay: Embryonic development of SCNT eggs cultured with RS-1 (somatic cell cloning efficiency); assay type: cell-based, mice; conditions: for Number of embryos at 2-cell stage (%)+: based on the number of reconstructed oocytes; for Number of embryos at 4-cell stage (%)# / Number of blastocysts (%)# / Number of embryos at 2-cell stage block (%)#: based on the number of embryos at 2-cell stage
Experimental: 5IU PMSG and 5IU hCG hormone were administered into 8-week to 10-week-old female BDF/1 mice. 14 hr after hCG administration, cumulus cells were isolated from superovulated mice using hyaluronidase and eggs were collected. The isolated cumulus cells were refrigerated for use as somatic cell for donor cells, and the isolated eggs were stored in a KSOM culture medium in an incubator at 37° C. until experiments started. Thereafter, to carry out a somatic cell cloning experiment, nuclei were removed from matured eggs, and cumulus cells isolated in advance were directly injected as donor cells. The cumulus cells injected as donor cells were artificially activated in a culture medium containing a Rad51-stimulatory compound 1 (RS-1) for 6 hr. Thereafter, the cells were incubated in the culture medium containing RS-1 reagent for 22 hr. 22 hr later, the cells were incubated in a KSOM culture medium for 72 hr to 96 hr.
First, to examine whether RS-1 induced toxicity to egg development, IVF eggs and SCNT eggs (F/T SCNT) of Example 1 were treated with 0 μM, 1 μM, 5 μM, and 10 μM of RS-1, respectively, and an appropriate concentration was selected.

SCNT eggs (F/T SCNT) [5] = assay: LC3B (autophagy) and MitoTracker (mitochondria) staining of eggs; assay type: cell-based, mice; conditions: 2-cell stage; SCNT+RS-1 group; FIG. 3B
Experimental: In detail, to evaluate mitochondria distribution, SCNT-derived somatic cell cloned eggs at the 1-cell stage, 2-cell stage, and 4-cell stage were stained using MitoTracker Orange CMTMRos (Molecular Probes). Mitotracker was used at a concentration of 300 nM in an M16 culture medium supplemented with 0.3% BSA at 37° C. for 30 min in the dark. After washing, the oocytes were fixed and immunofluorescently stained with LC3B antibody and then nuclei were stained with DAPI.

SCNT eggs (F/T SCNT) [6] = assay: Comet assay for DNA breaks; assay type: cell-based, mice; conditions: SCNT+RS-1 group vs SCNT group; FIG. 6
Experimental: In detail, to examine DNA damage, each sample in a 1 ml tube from which a culture medium was removed was suspended in 1% agarose at 37° C., and then fixed on a pre-coated slide (Trevigen). The slide was incubated at 4° C. for 4 hr, and then immersed in a solution (Trevigen) at 4° C. for 4 hr. The slide was removed from the lysis solution, and immersed in a 1×TAE buffer at 4° C. for 30 min, followed by electrophoresis for 30 min to 40 min. The slide was immersed in 1 M ammonium acetate at room temperature for 30 min, and then fixed at […] After fixing at room temperature for 30 min, incubation was performed at 42° C. for 20 min until agarose was completely dried. Thereafter, staining was performed using a 1×SYBR green I staining solution for 5 min.

O=C(Nc1ccc(Br)cc1)c1ccc(Br)c(S(=O)(=O)NCc2ccccc2)c1 [RS-1, 3-[(benzylamino)sulfonyl]-4-bromo-N-(4-bromophenyl)benzamide]
DNA damage (rH2AX and Rad51 expression) (SCNT eggs (F/T SCNT) [1]; 1-cell stage, SCNT+RS-1 group vs SCNT group): significant reduction in DNA damage
DNA damage (rH2AX and Rad51 expression) (SCNT eggs (F/T SCNT) [1]; 2-cell stage block, SCNT+RS-1 group compared with other groups): very strong DNA damage in the nucleus
induction rate of embryonic stem cells (blastocysts of SCNT eggs): 45%
reactive oxygen species in the nuclei (SCNT eggs (F/T SCNT) [2]): tended to increase
number of genes significantly decreased (SCNT eggs): 414 genes
number of genes significantly increased (SCNT eggs): 190 genes
production rate of cloned mouse ([3]; SCNT+RS-1 oocytes at the 2-cell stage implanted into surrogate ICR mice, generally about 1% after normal cloning, FIG. 9A): 5%
toxicity during development ([3]; mouse, in vivo): no toxicity problem
Number of embryos at 2-cell stage (%)+ (SCNT eggs (F/T SCNT) [4]; RS-1 1 μM, 45 NT oocytes): 42%
Number of embryos at 4-cell stage (%)# (SCNT eggs (F/T SCNT) [4]; RS-1 1 μM): 35%
Number of blastocysts (%)# (SCNT eggs (F/T SCNT) [4]; RS-1 1 μM): 8(19) %
Number of embryos at 2-cell stage block (%)# (SCNT eggs (F/T SCNT) [4]; RS-1 1 μM): 7(16.7) %
Number of embryos at 2-cell stage (%)+ (SCNT eggs (F/T SCNT) [4]; RS-1 5 μM, 46 NT oocytes): 43%
Number of embryos at 4-cell stage (%)# (SCNT eggs (F/T SCNT) [4]; RS-1 5 μM): 36%
Number of blastocysts (%)# (SCNT eggs (F/T SCNT) [4]; RS-1 5 μM): 18(41.9) %
Number of embryos at 2-cell stage block (%)# (SCNT eggs (F/T SCNT) [4]; RS-1 5 μM): 7(16.3) %
Number of embryos at 2-cell stage (%)+ (SCNT eggs (F/T SCNT) [4]; RS-1 10 μM, 54 NT oocytes): 50%
Number of embryos at 4-cell stage (%)# (SCNT eggs (F/T SCNT) [4]; RS-1 10 μM): 47%
embryonic development rate (SCNT eggs (F/T SCNT) [4]; RS-1 10 μM, control group 31%, Table 1): 76%
Number of blastocysts (%)# (SCNT eggs (F/T SCNT) [4]; RS-1 10 μM): 28(56) %
Number of embryos at 2-cell stage block (%)# (SCNT eggs (F/T SCNT) [4]; RS-1 10 μM): 3(6) %
embryonic development rate (SCNT eggs (F/T SCNT) [4]; treatment with RS-1 during SCNT, FIG. 3A, control group 17%): 59%
number of embryos at the 2-cell stage block (SCNT eggs (F/T SCNT) [4]; treatment with RS-1 during SCNT, FIG. 3A, control group 39%): 5%
autophagy (LC3B) and mitochondria (mitotracker) expression pattern (SCNT eggs (F/T SCNT) [5]): intensive autophagy and mitochondria expression in the nucleus
DNA breaks (length of 3'-end, comet assay) (SCNT eggs (F/T SCNT) [6]): DNA breaks were decreased
generation of the abnormal 3'-end (SCNT eggs (F/T SCNT) [6]): significantly reduced
